Measurements taken from patent publication US20080159987A1 (priority 2007, published 2008).

Experiments:
IBS patients with RLS [1] = test: Follow-up lactulose breath test (LBT); format: in vivo, human; conditions: neurology patient, two months after completing rifaximin therapy
Description: Patients consumed a low carbohydrate dinner and fasted overnight. Breath samples were collected every 15 minutes for 180 minutes and were analyzed by gas chromatography (using, for example, a QUINTRON DP PLUS MICROLYZER™ manufactured by QuinTron Instrument Company, Milwaukee, Wis.) for levels of hydrogen and methane. After a baseline recording, patients consumed 10 g of lactulose powder (for example, KRISTALOSE® produced by Bertek Pharmaceuticals Inc, Sugar Land, Tex.) dissolved in 240 mL of water. An abnormal LBT result was defined as an increase of greater than 20 ppm above baseline levels for hydrogen and/or methane gas 180 minutes or less after ingesting lactulose. An abnormal flatline LBT result was defined as a lack of a greater than 5-ppm increase above baseline levels for either hydrogen or methane during the 180-minute test. The role of SIBO in IBS and diseases other than restless legs syndrome, as well as the efficacy of breath tests in the diagnosis of SIBO is discussed in U.S. Pat. Nos. 6,861,053; 6,805,852; 7,056,686; and 7,048,906 to Lin and Pimentel, the disclosures of each of which are expressly incorporated by reference herein.

IBS patients with RLS [2] = test: Open-label, observational pilot trial: GI (IBS) symptom improvement questionnaire; format: in vivo, human
Text: (§1) Patients visiting a community-based adult gastroenterology clinic over a 4-month period were eligible for the study if they presented with functional bowel symptoms and had abnormal lactulose breath test (LBT) results. Patients were excluded if they had celiac disease, Crohn's disease, pancreatic insufficiency, ulcerative colitis, scleroderma, diabetes, chronic renal failure, or surgeries predisposing them to SIBO. A diagnosis of RLS was confirmed using the Johns Hopkins validated interview process.
(§2) This was followed by long-term administration of the prokinetic medicine tegaserod (ZELNORM® produced by Novartis Pharmaceuticals Corporation, East Hanover, N.J.) 3 mg nightly plus short-term treatment with zinc 220 mg/d for one month for increased small intestinal permeability and a bifidobacteria-based probiotic (FLORA-Q® produced by Kenwood Therapeutics, Fairfield, N.J.) once daily for one month. Two patients were treated with rifaximin alone.
Each patient completed a questionnaire identifying the occurrence and rating the severity of six IBS symptoms experienced during the week before the LBT was conducted (baseline): abdominal pain, bloating, constipation, diarrhea, flatulence, and postprandial fullness. A history consistent with RLS and fibromyalgia was sought. Serum ferritin levels were measured at baseline.
(§3) The percentage of RLS symptom improvement was assessed at the end of follow-up.
(§4) The remaining two patients (the neurology clinic patient and propositus) received a modified treatment regimen.
Percentages of RLS and IBS symptom improvement as well as global IBS symptom improvement were assessed at a mean of 107 days (range, 22-450 days). […] The ten patients who responded included the three patients who had borderline or low serum levels of iron at baseline. […] Eight of the ten patients with at least 80% improvement in RLS symptoms were followed long-term (mean, 139 days; range, 54-450 days), and 5 of the 8 patients reported complete (100%) resolution of RLS symptoms at the last follow-up visit.

[3] = cited from earlier work
IBS patients with RLS [4] = test: Open-label, observational pilot trial: RLS symptom improvement; format: in vivo, human
Text: It was suspected that the patient might have postinfectious IBS and SIBO.
as §1, §2, §3
Thirteen IBS patients with confirmed RLS were included in the study. Eleven of these 13 patients were originally included in a SIBO study of IBS: 19 of 161 patients with an abnormal LBT result thought they had RLS. A diagnosis of RLS was confirmed in 11 of these 19 patients by the Johns Hopkins validated interview process. The remaining 2 of 13 patients with RLS (1 was the propositus and the other was referred from a neurology clinic) had been previously evaluated and treated for RLS by a neurologist.
as §4
Percentages of RLS and IBS symptom improvement as well as global IBS symptom improvement were assessed at a mean of 107 days (range, 22-450 days). […] The ten patients who responded included the three patients who had borderline or low serum levels of iron at baseline. […]

[5] = day 11, after ten days of rifaximin therapy
[6] = end of follow-up (mean 107 days), rifaximin followed by tegaserod, zinc, probiotic in 11 of 13
[7] = last follow-up visit, 13 patients

SMILES: CO[C@H]1/C=C/O[C@@]2(C)Oc3c(C)c(O)c4c(O)c(c5c(nc6cc(C)ccn65)c4c3C2=O)NC(=O)/C(C)=C\C=C\[C@H](C)[C@H](O)[C@@H](C)[C@@H](O)[C@@H](C)[C@H](OC(C)=O)[C@@H]1C [rifaximin]
- LBT result after therapy (IBS patients with RLS [1]): normal
- GI symptom improvement: abdominal pain (IBS patients with RLS [2]; [5]): 74%
- GI symptom improvement: bloating (IBS patients with RLS [2]; [5]): 70%
- GI symptom improvement: constipation (IBS patients with RLS [2]; [5]): 64%
- GI symptom improvement: diarrhea (IBS patients with RLS [2]; [5]): 73%
- GI symptom improvement: flatulence (IBS patients with RLS [2]; [5]): 47%
- GI symptom improvement: postprandial fullness (IBS patients with RLS [2]; [5]): 65%
- GI symptom improvement: abdominal pain (IBS patients with RLS [2]; [6]): 81%
- GI symptom improvement: bloating (IBS patients with RLS [2]; [6]): 76%
- GI symptom improvement: constipation (IBS patients with RLS [2]; [6]): 59%
- GI symptom improvement: diarrhea (IBS patients with RLS [2]; [6]): 68%
- GI symptom improvement: flatulence (IBS patients with RLS [2]; [6]): 55%
- GI symptom improvement: postprandial fullness (IBS patients with RLS [2]; [6]): 67%
- global symptom improvement rated as greatly improved (IBS patients with RLS [2]; [7]): 6 patients
- global symptom improvement rated as mildly improved (IBS patients with RLS [2]; [7]): two
- global symptom improvement rated as moderately improved (IBS patients with RLS [2]; [7]): five
- solubility in water [3]: practically insoluble in water
- patients reporting complete (100%) resolution of RLS symptoms at the last follow-up visit (IBS patients with RLS [4]; of 8 responders followed long-term (mean 139 days; range 54-450 days)): 5 of the 8
- patients exhibiting at least 80% improvement in RLS symptoms at the last follow-up visit (IBS patients with RLS [4]; rifaximin 400 mg three times daily for ten days, in 11 of 13 followed by tegaserod, zinc, probiotic, assessed at mean 107 days (range 22-450)): Ten of 13
- response for both RLS and IBS symptoms (IBS patients with RLS [4]; single patient (propositus), empiric treatment with rifaximin): dramatic, rapid, and prolonged response
